In patent publication US6994981B2, “Modulators of paraptosis and related methods” (The Buck Institute, priority 2002, dated 2006):
Entries after “also recorded” stand apart in the source; their conditions may differ.

Tests used:
[1] = system: 293T cells transfected with NK1R; assay: SP-induced, NK1R-mediated cell death in 293T cells transfected with NK1R, trypan blue and staining; format: cell-based, human
Procedure: (§1) Human embryonic kidney 293T cells were grown as described in Example I. Transient transfection was performed using Superfect (Qiagen) as described by the manufacturer. Briefly, 2×10^5 cells/well were seeded into 35 mm wells 16 hr prior to transfection. Superfect:DNA complexes were added at a 5 μl:2 μg ratio for 3 hr; then the medium was replaced and after 24 hr SP was added. At 24–48 hr after addition of SP cell death was quantified as follows: the media containing floating cells were collected and centrifuged 10 min at 2000×g, the pellet was resuspended in PBS/trypan blue and the cells were counted using a hematocytometer. When other compounds were used, they were added at the same time as SP: zVAD.fmk or BAF was added at 50 μM and obtained from Enzyme System Products, Livermore, Calif.
Briefly, the method entailed cloning the full-length (1.2 kb) NK1R cDNA (Genbank Accession No. M31477) by RT-PCR from adult rat hippocampal RNA into the XbaI/EcoRI sites of the vector pcDNA3.1 (Invitrogen), using the following oligonucleotides: forward 5′[…] 3′ (SEQ ID NO:2); reverse 5′[…] 3′ (SEQ ID NO:3).
Cells were stained according to the manufacturer's instructions (Clontech). Briefly, cellswere washed with binding buffer and incubated with FITC-Annexin-V or EGFPAnnexin-V for 5–10 min and fixed with 4% paraformaldehyde.
Cells were fixed 10 min with 4% paraformaldehyde and stained according to the manufacturer's instructions (Promega).
(§2) The protein kinase inhibitors were added 30 min before SP exposure at the following concentrations: 10 μM Rp-8-Br-cAMPS (adenosin 3′,5′-cyclic monophosphorothioate, 8-bromo-, Rp-isomer, sodium salt) which is a PKA inhibitor; 50 nM Calphostin C, which is a PKC inhibitor; 10 μM PD 98059 which is a MAPKK (MEK) inhibitor. These compounds were obtained from Calbiochem. Viability was quantified by trypan blue staining of the total cell population.

[2] = system: 293T human embryonic kidney cells; assay: SP toxicity to untransfected 293T cells; format: cell-based; conditions: no endogenous NK1R, up to millimolar SP
Procedure: as §1

[3] = system: striatal, cortical, and hippocampal neurons; assay: SP-induced cell death in primary striatal, cortical and hippocampal neurons, trypan blue viability and staining; format: cell-based, rat
Procedure: Rat neuronal primary cell cultures were also used to assay for inducers and inhibitors of paraptosis. Briefly, primary striatal, cortical and hippocampal cultures were prepared from 17-day-old Sprague-Dawley rat embryos (B&K). The tissue was dissected, minced and trypsinized for five minutes using 0.25% trypsin (Cell Grow). After the addition of 10% horse serum (Life Technologies) to inhibit the trypsin, the cell suspension was triturated 15–20 times with a 10 ml syringe and centrifuged for five minutes at 800×g. The pellet was resuspended in MEM-PAK (UCSF Cell Culture facility), supplemented with 2.02 gm glucose, 2 mM GLUTAMAX™ (Life Technologies) and penicillin/streptomycin (100 U/ml). The suspension was filtered through a […] cell strainer and the final culture medium contained 5% horse serum. Subsequently, 3-4×10^5 cells per Cm^2 were seeded onto either poly-D-lysine precoated 8-well chamber slides (Becton-Dickson Labware) or 96 well plates precoated with […] of poly-D-lysine (Sigma) in water. After 30 minutes of incubation time, unattached cells were removed together with the medium and replaced with glucose enriched MEM-PAK plus 5% horse serum. The cultures were then incubated at 37° C. in 95% air 5% carbon dioxide with 95% humidity. Cultures were used for experiments between day 1 and day 7 when glial contamination was at a minimum.
Primary neuronal cells were prepared as described in Example I. SP (SIGMA) at a concentration of 0.1 nM–100 μM was added 24–48 hrs after seeding, in the presence of 2.5% horse serum. When the cultures were maintained for more than 5 days, 10 μM cytosine arabinoside was added for 24 hours, beginning 3 days after plating the cells. Viability was quantified by trypan blue staining of the total cell population.
The following compounds were added at the same time as SP in the indicated experiments: 5 nM L-732, 138; 1 nM L-733,060; 1 μg/ml Actinomycin D or 1 μg/ml Cycloheximide. All of these compounds were obtained from SIGMA. The caspase inhibitors zVAD.fmk and BAF were added at 50 μM and obtained from Enzyme System Products, Livermore, Calif.
Either neuronal primary cultures or human embryonic kidney 293T cells were fixed with 4% paraformaldehyde and stained with 0.5 μg/ml DAPI (Molecular Probes) or Hoechst(SIGMA). […]
as §2

[4] = system: ERK-1/2; assay: Western blot of ERK-1/2 phosphorylation in 293T cells expressing NK1R; format: cell-based, human; conditions: 293T cells expressing the wild type NK1R, but not NK1Rd342
Procedure: For the transfected 293T cells, cells were washed with cold PBS after incubation with SP the time indicate and homogenized on lysis buffer (150 mM NaCl, 1% Triton X-100, 50 mM Tris HCL pH8.0). Cytoplasmic extracts were collected after 10 min centrifugation at 14,000 rcf. Total amount of protein was quantified by Bradford assay and electrophoresis of equal amounts of total protein was performed on SDS-polyacrylamide gels. Separated proteins were transferred to polyvinylidene fluoride membranes at 4° C. for Western blot analysis. Membranes were probed with a 1:1000 dilution of anti-ERK-1/2 or anti phospho-ERK-1/2 (BioSource). The blots were incubated in a horseradish peroxidase coupled secondary antibody for 1 h followed by enhanced chemiluminescence detection of the proteins with […]™ ECL detection (Amersham, Arlington Heights, Ill.). For striatal neurons, total ERK-1/2 was immunoprecipitated using superparamagnetic Microbeads conjugated to protein A, following manufacture's instructions (MACS, Miltenyi Biotec), and then developed by Western blot against either anti-ERK-1/2 or anti phospho-ERK-1/2.

[5] = system: fibroblasts; assay: SP toxicity to fibroblasts; format: cell-based; conditions: extracellular SP

SP: eleven amino acid neurotransmitter of the tachykinin family, ligand of NK1R
sensitivity of NK1R-transfected 293T cells to SP [1]: sensitive to SP at nanomolar concentrations
sensitivity of 293T cells to SP-induced cell death [2]: resistant
sensitivity of neurons to SP ([3]; 48 hours after exposure): sensitive to micromolar concentrations
effect of SP isomer on neuronal cell death ([3]; L or D isomer): induced cell death
sensitivity of neurons to SP ([3]; seven days after exposure, SP added only once): sensitive to nanomolar concentrations
activation of ERK-1/2 by SP [4]: activation of ERK-1/2
toxicity to fibroblasts [5]: resistant to micromolar concentrations; also recorded: not toxic
